How the values were obtained:
[1] = biological target: T1, rabbit IgG (Oryctolagus cuniculus, UniProt P01870); conditions: Gong et al.; cited from earlier work
T1 construct: purchased Sigma-Aldrich

[2] = tested on: human IgG; conditions: cited from earlier work
[3] = tested on: IgG-Fc-region; conditions: DeLano et al. 2000; cited from earlier work
[4] = tested on: human IgG; assay: SPR interaction assay (Biacore), scaffolds immobilised, human IgG as analyte; type: binding; conditions: hIgG at 25° C.
Protocol: Surface plasmon resonance (SPR) The affinities and binding kinetics of the generated TtSlyD-Fc-III-4C mutants were evaluated by SPR using a Biacore biosensensor system. The Biacore system enables a real-time monitoring of intermolecular interactions between the ligand, immobilised on a sensor chip gold-surface, and the analyte which is free in solution and passes over the ligand (Healthcare, G., Biacore™ Assay Handbook 29-0194-00 Edition AA). Interaction of the binding partners leads to SPR signals (responses), measured in resonance units (RU) and illustrated as plot against time (sensorgram).
Regarding the procedure, in brief, the analyte is injected on the chip, interacting with the immobilised ligand. The change in concentration of molecules at the chip surface leads to a change in the refractive index, monitored as response unit (RU). Dissociation of analyte is triggered by continues buffer flow, followed by complete removal (chip regeneration) and starting of a new analysis cycle. […]
Interaction kinetics are examined by monitoring different analyte concentrations over time. Kinetic parameters, such as association (ka) and dissociation rate constants (kd) are evaluated in relation to a mathematical model. […]

T1 sequence (P01870 whole entry): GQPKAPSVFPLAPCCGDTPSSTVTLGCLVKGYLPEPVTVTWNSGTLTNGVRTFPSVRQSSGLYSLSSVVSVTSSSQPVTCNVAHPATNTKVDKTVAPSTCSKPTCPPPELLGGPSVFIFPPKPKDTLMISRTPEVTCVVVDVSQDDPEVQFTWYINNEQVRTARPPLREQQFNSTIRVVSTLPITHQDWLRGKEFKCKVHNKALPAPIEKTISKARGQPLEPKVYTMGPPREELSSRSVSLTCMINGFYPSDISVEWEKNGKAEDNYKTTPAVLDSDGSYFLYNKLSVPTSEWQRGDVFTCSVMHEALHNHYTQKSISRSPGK

For CDCAWHLGELVWCTC [Fc-III-4C], the Kd [1] is listed as 5.67 nM, the “higher binding affinity to human IgG compared to the original Fc-III” value ([2]; SPR) is listed as 30 fold and the Kd ([2]; human IgG, Gong et al. 2016) is listed as 2.45 nM.

For DCAWHLGELVWCT [Fc-III], the “binding affinity relative to Protein A” value [3] is listed as “only about two fold weaker”.

B1: TtSlyD-Fc-III-2C Hit No. 4: SlyD chimera whose IF domain is replaced by Fc-III-XC peptide EDCAWHLGELVWCTE, SEQ ID NO: 16 (protein)
chain: MKVGQDKVVTIRYTLQVEGEVLDQGELSYLHGHRLIPGLEEALEGREEGEAFQAHVPAEKAYEDCAWHLGELVWCTEGKDLDFQVEVVKVREATPEELLHGHA
modifications: left off: small tags and cut ends
In the case of B1, the “binding affinity KA” value [4] is reported as 1.09e+08 M⁻¹ and the t/2 diss [4] is reported as 36 min.

From patent US20250197457A1, “CHIMERIC IGG-FC-BINDING LIGAND POLYPEPTIDE AND USES THEREOF FOR IGG AFFINITY PURIFICATION” (Roche Diagnostics Operations, Inc., priority 2021, published 2025)
